Laboratory results taken from patent publication US20250109139A1, “TRICYCLIC COMPOUND, AND PREPARATION METHOD THEREFOR AND USE THEREOF” (SHANGHAITECH UNIVERSITY, priority 2022, published 2025).
Like-named read-outs stand apart in the source and are kept apart here.

Tests used:
dopamine D2 receptors [1] = target: T1, dopamine D2 receptors (Homo sapiens (Human), UniProt P14416); experiment: Dopamine D2 receptor β-arrestin2 BRET (recruitment); assay type: cell-based; details: for Emax: relative to endogenous ligand dopamine, read-out: β-arrestin2 BRET Emax % ± SEM
T1 sequence (P14416 whole entry): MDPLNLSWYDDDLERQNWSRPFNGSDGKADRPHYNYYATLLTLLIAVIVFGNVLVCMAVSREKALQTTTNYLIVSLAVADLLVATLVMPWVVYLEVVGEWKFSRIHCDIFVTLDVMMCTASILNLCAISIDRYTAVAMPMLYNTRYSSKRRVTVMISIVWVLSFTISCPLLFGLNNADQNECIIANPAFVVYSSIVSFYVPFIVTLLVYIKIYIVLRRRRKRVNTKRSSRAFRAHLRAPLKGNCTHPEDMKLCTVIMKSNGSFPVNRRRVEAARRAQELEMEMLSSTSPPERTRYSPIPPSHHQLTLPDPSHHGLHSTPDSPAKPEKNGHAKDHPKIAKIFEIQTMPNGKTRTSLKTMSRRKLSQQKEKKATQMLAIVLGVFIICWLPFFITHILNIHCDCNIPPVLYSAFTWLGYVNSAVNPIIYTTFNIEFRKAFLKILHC
Experimental: (§1) To examine the downstream G-protein signaling pathway mediated by dopamine D2 receptors, on the first day, a 6 cm culture dish was used for transfection with 1 μg of dopamine D2 receptors, 1 μg of Gαi1 containing C-terminal seaweed luciferase (Gαi1-Rluc), 1 μg of Gβ3, 1 μg of Gγ9 containing C-terminal green fluorescent protein (Gγ9-GFP) mixed with 16 μL of PEI. At the same time, in order to examine the downstream β-arrestin2 signaling pathway mediated by dopamine D2 receptors, on the first day, a 6 cm culture dish was used for transfection with […] of dopamine D2 receptors containing C-terminal seaweed luciferase (D2-Rluc), […] of G protein-coupled receptor kinase 2 (GRK2), […] of β-arrestin2 containing N-terminal green fluorescent protein (GFP2-ARRB2) mixed with 14 μL of PEI. The next day, the confluent cells of a 6 cm culture dish were digested and reseeded into a 96-well plate with 100 μL of culture medium added to each well. On the third day, the drugs were added for test. The 96-well plate was taken out from the cell incubator to decant the culture medium, 40 μL of the substrate coelenterazine 400a (final concentration of 5 μM) was added to each well, and then 20 μL of different drugs were added sequentially from left to right to ensure that the final concentration of the drug decreased gradually from bottom to top, with two replicates per treatment. Finally, the prepared samples were loaded on machine for test. The machine readout value reflected the recruitment of β-arrestin2 to the membrane or the dissociation of G protein trimer. The former indicated the degree of activation of the β-arrestin2 signaling pathway downstream of the dopamine D2 receptors, and the latter indicated the degree of activation of the G protein signaling pathway downstream of the dopamine D2 receptors.

dopamine D2 receptors [2] = target: T1, dopamine D2 receptors; experiment: Dopamine D2 receptor Gαi1 BRET (G protein trimer dissociation); assay type: cell-based; details: for Emax: relative to endogenous ligand dopamine, read-out: Gαi1 BRET Emax % ± SEM
Experimental: as §1

dopamine D2 receptors [3] = target: T1, dopamine D2 receptors; experiment: Dopamine D2 receptor radioligand competition binding assay ([3H]-Methylspiperone); details: [3H]-Methylspiperone 0.3 to 0.5 nM, 293T membranes
Experimental: The affinity of the compounds of the present disclosure for dopamine D2 receptors was determined by a radioligand competition binding assay.
In the first step, a cell membrane component containing specific dopamine D2 receptors was prepared. A 10 cm culture dish was used for transfection with […] of dopamine D2 receptors and 40 μL of polyethylenimine (PEI hereafter). […] A vacuum pump was used to suck off the culture medium, 3 mL of lysis buffer was added to each culture dish, and the cells were placed in a 4° C. cold room for 10 minutes. After the cells were detached, the cells were transferred to a 15 mL centrifuge tube and centrifuged at 1500 rpm for 5 minutes at 4° C., and the supernatant was discarded. The cell pellet was transferred to a tissue homogenizer, and 3 mL of lysis buffer was added and fully ground until the cells were broken. Then, cell suspension was equally aliquoted into several EP tubes, centrifuged at 12000 rpm for 5 minutes at 4° C., and the supernatant was discarded. The precipitate was the cell membrane component containing the dopamine D2 receptors.
First, a standard binding buffer was added to the cell membrane component containing the dopamine D2 receptors, and the cell membrane was disrupted and resuspended with an electric tissue homogenizer. 30 μL of membrane protein suspension was added to each well of a 96-well plate. Then, 30 μL of different drugs were added to the 96-well plate sequentially from bottom to top to ensure that the final drug concentrations were 10^−5 M, 10^−6 M, 10^−7 M, 10^−8 M, 10^−9 M, and 0 M, with two replicates per treatment. Next, 30 μL of [3H]-Methylspiperone was added to each well of the 96-well plate. The plate was incubated at room temperature in the dark for 2 hours. Detection was conducted. The machine readout value reflected the amount of [3H]-Methylspiperone bound on the membrane, and after further data processing, the affinity Ki values of different compounds for the dopamine D2 receptors were obtained.

[4] = unit printed only in Cariprazine cell, read-out: β-arrestin2 BRET EC50
[5] = unit printed only in Cariprazine cell, read-out: Gαi1 BRET EC50
[6] = read-out: Gαi1 BRET pEC50 ± SEM (converted)

Row | Emax (dopamine D2 receptors [1]) | EC50 (dopamine D2 receptors [1]; [4]) | Gαi1 BRET pEC50 ± SEM (dopamine D2 receptors [2]) | Emax (dopamine D2 receptors [2]) | EC50 (dopamine D2 receptors [2]; [5]) | Affinity pKi ± SEM (dopamine D2 receptors [3]) | Ki (dopamine D2 receptors [3]; read-out: Affinity Ki) | Structure (SMILES) | EC50 (dopamine D2 receptors [1]; read-out: β-arrestin2 BRET pEC50 ± SEM (converted)) | EC50 (dopamine D2 receptors [2]; [6]) | Ki (dopamine D2 receptors [3]; read-out: Affinity pKi ± SEM (converted))
1 | 107% | 4.61 nM | (7.21 ± 0.12) | 27% | 61.3 nM | (6.85 ± 0.19) | 139 nM | COc1cccc2c3c(oc12)CN(C/C=C/COc1ccc2ccc(=O)[nH]c2c1)CC3 [I-A10, (E)-7-((4-(8-methoxy-3,4-dihydrobenzofuro[2,3-c]pyridin-2(1H)-yl)but-2-en-1-yl)oxy)quinolin-2(1H)-one] |  |  | 
2 | 21% | 8.36 nM |  | 40% | 10.6 nM | (6.03 ± 0.07) | 930 nM | CC(C)Oc1cccc2c3c(oc12)CN(CC[C@H]1CC[C@H](NC(=O)N(C)C)CC1)CC3 [I-A19, 3-(trans-4-(2-(8-isopropoxy-3,4-dihydrobenzofuro[2,3-c]pyridin-2(1H)-yl)ethyl)cyclohexyl)-1,1-dimethylurea] |  | 10.7 nM | 

Row | Structure (SMILES) | Emax (dopamine D2 receptors [1]) | EC50 (dopamine D2 receptors [1]; [4]) | Gαi1 BRET pEC50 ± SEM (dopamine D2 receptors [2]) | Emax (dopamine D2 receptors [2]) | EC50 (dopamine D2 receptors [2]; [5]) | Affinity pKi ± SEM (dopamine D2 receptors [3]) | Ki (dopamine D2 receptors [3]; read-out: Affinity Ki) | EC50 (dopamine D2 receptors [1]; read-out: β-arrestin2 BRET pEC50 ± SEM (converted)) | EC50 (dopamine D2 receptors [2]; [6]) | Ki (dopamine D2 receptors [3]; read-out: Affinity pKi ± SEM (converted))
3 | COc1cccc2c3c(oc12)CN(CC[C@H]1CC[C@H](NS(C)(=O)=O)CC1)CC3 [I-A13, N-(trans-4-(2-(8-methoxy-3,4-dihydrobenzofuro[2,3-c]pyridin-2(1H)-yl)ethyl)cyclohexyl)methanesulfonamide] | 81% | 4.61 nM |  | 53% | 46.6 nM |  | 1720 nM | 0.832 nM | 38.9 nM | 1580 nM
